The target in the assay is Beta-secretase 1 (Homo sapiens, UniProt P56817). Put plainly: D3R2027.
Sequence of Beta-secretase 1 (P56817 whole entry): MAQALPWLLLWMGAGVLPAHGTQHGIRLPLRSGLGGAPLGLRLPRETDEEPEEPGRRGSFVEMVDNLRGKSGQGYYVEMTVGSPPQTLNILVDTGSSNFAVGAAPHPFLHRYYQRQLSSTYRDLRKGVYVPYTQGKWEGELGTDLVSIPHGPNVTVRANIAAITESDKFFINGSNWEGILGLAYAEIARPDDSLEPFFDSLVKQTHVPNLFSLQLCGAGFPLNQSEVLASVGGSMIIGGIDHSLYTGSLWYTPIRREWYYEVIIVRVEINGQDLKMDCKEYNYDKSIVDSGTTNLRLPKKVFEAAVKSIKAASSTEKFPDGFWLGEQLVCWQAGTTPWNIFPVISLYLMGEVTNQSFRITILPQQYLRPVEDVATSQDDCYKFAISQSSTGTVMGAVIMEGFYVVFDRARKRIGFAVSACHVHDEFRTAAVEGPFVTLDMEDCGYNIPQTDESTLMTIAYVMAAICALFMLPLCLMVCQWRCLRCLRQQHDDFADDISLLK
Source text: D3R2027
The IC50 is the midpoint of a concentration-inhibition curve. Higher therefore signals a need for much substance. Turning to `CC(C)(C)Cc1cc(C(C)(C)NC[C@@H](O)[C@@H]2Cc3cccc(c3)OCCCCOc3cncc(c3)C(=O)N2)no1` [BACE_109], the IC50 came out at 0.0045 µM.
Under `Cc1cc2cc(n1)OCCCCOc1cccc(c1)C[C@@H]([C@H](O)CNC(C)(C)c1cc(C(C)(C)C)sn1)NC2=O` [BACE_110] stands 0.12 µM; under `Cc1cc2cc(n1)OCCCCOc1cccc(c1)C[C@@H]([C@H](O)CN[C@H]1CC(C)(C)Oc3ccc(C(C)C)cc31)NC2=O` [BACE_111], 0.003 µM; under `Cc1cc2cc(n1)OCc1ccccc1COc1cccc(c1)C[C@@H]([C@H](O)CNC1(c3cccc(C(C)C)c3)CC1)NC2=O` [BACE_112], 1.4 µM.
On to `Cc1cc2cc(n1)CCCCCc1cccc(c1)C[C@@H]([C@H](O)CNCc1cccc(C(C)C)c1)NC2=O` [BACE_113], for which the IC50 was 1.6 µM.
Under `CC(C)c1cccc(C(C)(C)NC[C@@H](O)[C@@H]2Cc3cccc(c3)OCCCCNc3cncc(c3)C(=O)N2)c1` [BACE_114] stands 0.057 µM; under `CC(C)c1cccc(C(C)(C)NC[C@@H](O)[C@@H]2Cc3cccc(c3)CCCCNc3cccc(c3)C(=O)N2)c1` [BACE_115], 0.29 µM; under `CC(C)c1cccc(C(C)(C)NC[C@@H](O)[C@@H]2Cc3cc(F)c(N)c(c3)CCCCNc3cccc(c3)C(=O)N2)c1` [BACE_116], 0.12 µM.
To `COCc1cc2cc(c1)C(=O)N[C@H]([C@H](O)CNC(C)(C)c1cc(CC(C)(C)C)on1)Cc1cccc(c1)OCCCCN2` [BACE_117] belongs 0.0065 µM.
To `CC(C)c1cccc(CNC[C@@H](O)[C@@H]2Cc3cccc(c3)CCCCN(C)c3cccc(c3)C(=O)N2)c1` [BACE_118] belongs 1 µM.
Take `CC(C)(C)c1ccnc(C2(NC[C@@H](O)[C@@H]3Cc4cccc(c4)CCCCNc4cc(cc(-c5ncco5)c4)C(=O)N3)CC2)c1` [BACE_119]: it took 0.0015 µM to reach half-maximal inhibition (IC50).
Compound `CC(C)(NC[C@@H](O)[C@@H]1Cc2cccc(c2)CCCCNc2cncc(c2)C(=O)N1)c1cccc(Br)c1` [BACE_120] had an IC50 of 0.59 µM.
Under `CC(C)(NC[C@@H](O)[C@@H]1Cc2cccc(c2)CCCCNc2cc(c[n+](Cc3ccccc3)c2)C(=O)N1)c1cccc(Br)c1` [BACE_121] stands 3.6 µM; under `CC(C)c1cccc(C(C)(C)NC[C@@H](O)[C@@H]2Cc3cccc(c3)OCCCCNc3cccc(n3)C(=O)N2)c1` [BACE_122], 2.3 µM.
To `CC(C)Cc1cncc(C(C)(C)NC[C@@H](O)[C@@H]2Cc3cccc(c3)OCCCCNc3cccc(c3)C(=O)N2)c1` [BACE_123] belongs 0.26 µM; to `COCc1cc2cc(c1)C(=O)N[C@H]([C@H](O)CNC(C)(C)c1cc(C(C)(C)C)ccn1)Cc1cccc(c1)OCCCCN2` [BACE_124], 0.025 µM; to `C[C@H](NC[C@@H](O)[C@@H]1Cc2cccc(c2)OCCCCOc2cncc(c2)C(=O)N1)c1cc(CC(C)(C)C)on1` [BACE_125], 0.006 µM.
Turning to `COCc1cc2cc(c1)C(=O)N[C@H]([C@H](O)CN)Cc1cccc(c1)OCCCCN2` [BACE_126], the IC50 was 13 µM.
To `COCc1cc2cc(c1)C(=O)N[C@H]([C@H](O)CNCc1cnn(CC(C)C)c1)Cc1cccc(c1)OCCCCN2` [BACE_127] belongs 0.1 µM; to `COCc1cc2cc(c1)C(=O)N[C@H]([C@H](O)CN[C@H]1CC(C)(C)Oc3ccc(C(C)C)cc31)Cc1cccc(c1)OCCCCN2` [BACE_128], 0.0025 µM; to `COCc1cc2cc(c1)C(=O)N[C@H]([C@H](O)CNCc1cc(CC(C)(C)C)on1)Cc1cccc(c1)OCCCCN2` [BACE_129], 0.014 µM.
Under `COc1ccc2cc1OCCCCNc1cc(CO)cc(c1)C(=O)N[C@H]([C@H](O)CNCc1cccc(C(C)C)c1)C2` [BACE_130] stands 0.96 µM.
To `CN(C)C(=O)c1cc2cc(c1)C(=O)N[C@H]([C@H](O)CNC1(c3cccc(C(C)(C)C)c3)CC1)Cc1ccc(F)c(c1)OC/C=C\CN2` [BACE_131] belongs 0.041 µM.
The compound `CC(C)c1cccc(CNC[C@@H](O)[C@@H]2Cc3cccc(c3)CCCCOc3cc(cc(-c4ncco4)c3)C(=O)N2)c1` [BACE_132] showed an IC50 of 0.25 µM.
To `CC(=O)COc1cc2cc(c1)C(=O)N[C@H]([C@H](O)CNC1(c3cc(C(C)(C)C)ccn3)CC1)Cc1cccc(c1)CCCCO2` [BACE_133] belongs 0.002 µM; to `COC(=O)c1cc2cc(c1)C(=O)N[C@H]([C@H](O)CNCc1cccc(C(C)C)c1)Cc1cccc(c1)CCCCO2` [BACE_134], 0.18 µM.
`CC(=O)COc1cc2cc(c1)C(=O)N[C@H]([C@H](O)CNCc1cc(C(C)(C)C)ccn1)Cc1cccc(c1)CCCCO2` [BACE_135] showed an IC50 of 0.01 µM.
Under `CC(C)c1ccnc(CNC[C@@H](O)[C@@H]2Cc3cccc(c3)CCCCOc3cc(cc(N4CCCC4=O)c3)C(=O)N2)c1` [BACE_136] stands 0.027 µM; under `CC(C)c1cccc(CNC[C@@H](O)[C@@H]2Cc3cccc(c3)CCCCOc3cncc(c3)C(=O)N2)c1` [BACE_137], 0.48 µM; under `CC(C)(NC[C@@H](O)[C@@H]1Cc2cccc(c2)OCCCCOc2cncc(c2)C(=O)N1)c1cccc(Br)c1` [BACE_138], 0.29 µM.
To `CC(C)c1ccnc(CNC[C@@H](O)[C@@H]2Cc3cccc(c3)OCCCCOc3cccc(c3)C(=O)N2C)c1` [BACE_139] belongs 37 µM; to `COCc1cc2cc(c1)C(=O)N[C@H]([C@H](O)CNC1(c3cccc(C(C)C)c3)CC1)Cc1cccc(c1)OCCCO2` [BACE_140], 0.078 µM; to `CCc1cc(CNC[C@@H](O)[C@@H]2Cc3cccc(c3)OCCCCOc3cc(cc(C(=O)N(C)C)c3)C(=O)N2)ncn1` [BACE_141], 1.7 µM.
To `COc1cc2cc(c1)C1=N[C@@H](C[C@H](C)CCCCCCCN2)[C@H](CO)O1` [BACE_142] belongs 4.5 µM.
Regarding `C[C@@H]1CCCCCCCCC(=O)N(C)[C@@H](C)C(=O)N[C@H]([C@H](O)CO)C1` [BACE_143], the midpoint of inhibition, the IC50, lay at 61 µM.
Under `COCc1cc2cc(c1)C(=O)O[C@@H](CNC1(c3cccc(C(C)C)c3)CC1)[C@@H](N)Cc1cccc(c1)OCCCCN2` [BACE_144] stands 6.4 µM; under `CCCNc1cc(COC)cc(C(=O)N[C@@H](Cc2cccc(OC)c2)[C@H](O)CNC2(c3cccc(C(C)C)c3)CC2)c1` [BACE_145], 1.2 µM; under `CCCNc1cc(COC)cc(C(=O)N[C@@H](Cc2cccc(OC)c2)[C@H](O)CNCc2cccc(C(C)C)c2)c1` [BACE_146], 3.1 µM.
To `CCCCNC(=O)[C@H](C)C[C@H](O)[C@@H]1C[C@H](C)CCCC[C@H](C)CCC(=O)N[C@@H](C)C(=O)N1` [BACE_147] belongs 0.92 µM; to `CCCCNC(=O)[C@H](C)C[C@H](O)[C@@H]1C[C@H](C)CCCCC[C@H](C)CCC(=O)N(C)[C@@H](C)C(=O)N1` [BACE_148], 0.041 µM; to `CCCCNC(=O)[C@H](C)C[C@H](O)[C@@H]1C[C@H](C)CCCCCCC[C@H](NC(=O)OC(C)(C)C)C(=O)N[C@@H](C)C(=O)N1` [BACE_149], 0.003 µM.
With `CCCCNC(=O)[C@H](C)C[C@H](O)[C@@H]1C[C@H](C)CCCCCCC[C@H](NC(=O)c2ccncc2)C(=O)N[C@@H](C)C(=O)N1` [BACE_150], the IC50 is 0.0005 µM.
Regarding `CCCCNC(=O)[C@H](C)C[C@H](O)[C@@H]1C[C@H](C)CCCCCCCCS(=O)(=O)C[C@@H](C)C(=O)N1` [BACE_151], it took 0.56 µM to reach half-maximal inhibition (IC50).
Under `CCCCNC(=O)[C@H](C)C[C@H](O)[C@@H]1C[C@H](C)CCCCCCNc2cc(cc(OC)n2)C(=O)N1` [BACE_152] stands 0.46 µM.

(Values after BindingDB's records for doi:10.7270/Q2N301S8 (D3R/Abbott, 2020).)
